Measurements taken from patent US8461305B2, “L-fucose α1→6 specific lectin” (J-Oil Mills, Inc., priority 2008, dated 2013).

Columns and labels:
[1] = frontal affinity chromatography (FAC), association constant to PA sugar chains without L-fucose; type: binding; conditions: for association constant Ka: 25 degrees C.
Procedure: (§1) The following section will describe a method of calculating an association constant by frontal affinity chromatography (FAC). This method is based on the following principle. […] Then, the elution front end (front) is observed immediately. When there is an affinity with lectin, the elution of the sugar chain is delayed.
(§2) The preparation of a lectin column used in the apparatus is performed in the method as described below. 1. Purified lectin is dissolved in 0.1 to 0.2M of NaHCO3 buffer solution (pH 8.3 to 8.5). 2. The lectin is immobilized, via a lectin primary amino group, a carrier such as NHS activated sepharose. 3. Then, the lectin is blocked by Tris buffer solution including primary amine or ethanolamine for example. 4. Lectin-sepharose is suspended in 10 mM Tris buffer, including 0.8% of NaCl (pH 7.4, TBS). Then, lectin immobilized resin is filled in a miniature column (φ2 mm×10 mm, 31.4 μl). 5. The miniature column in which the lectin immobilized resin is filled is protected by a holder and the lectin column is connected to an FAC automatic analysis apparatus (FAC-1, SHIMADZU CORPORATION).
(§3) Then, the elution of the PA sugar chain from the column is detected by a fluorescence detector (excitation wavelength/fluorescence wavelength: 310 nm/380 nm).
(§4) Based on the detection data, by using the elution front end (Vo) of the sugar chain (PA rhamnose) not interacting with lectin as a reference, the delay (V−Vo) of the elution front end (V) of a sugar chain interacting with lectin is calculated as an interaction strength. Then, based on the following FAC criteria expressions, the association constant (Ka) between the sugar chain and lectin is calculated based on V−Vo and Bt. If the interaction strength (V−Vo value) and the association constant are higher, a higher affinity is caused between lectin and an L-fucose α1→6 sugar chain.
(§5) [In the formula, A means substance used for the elution, Ao means the initial concentration of the substance A, B means a immobilized ligand, V means the elution volume, Vo means the elution front end volume of the substance not interacting with the immobilized ligand B at all, Bt means an effective ligand amount, Kd means a dissociation constant (an inverse of the association constant)].
(§6) Pyridylaminated (PA) sugar chains shown in FIG. 1 and FIG. 2 were used to frontal affinity chromatography (FAC) analysis. PA sugars were purchased from TAKARA BIO INC., SEIKAGAKU BIOBUSINESS CORPORATION, and Masuda Chemical Industries co., LTD. PA sugar were also obtained by pyridylaminating, by GlycoTAG®(TAKARA BIO INC.), an unlabeled sugar chain or a sugar chain obtained by subjecting a sugar chain to enzyme digestion for example.
(§7) Lectin was dissolved in 0.2 M NaHCO3 buffer solution (pH 8.3) including 0.5 M NaCl and coupled to the NHS-activated sepharose (GE Healthcare Bioscience) by following the manufacturer's instructions. Then, lectin immobilized sepharose was suspended in 10 mM Tris buffer (pH 7.4, TBS) including […] and the resultant matter was filled in a miniature column (φ2 mm×10 mm, 31.4 μl).
(§8) Frontal affinity chromatography was performed using FAC automatic analysis apparatus (FAC-1, SHIMADZU CORPORATION). In particular, the above-prepared lectin column was inserted to a stainless steel holder and the holder was connected to FAC-1 apparatus. The flow rate and the column temperature were maintained at 0.125 ml/min and 25 degrees C., respectively. After the miniature column was equilibrated by the TBS, an excessive volume (0.5 ml to 4 ml) of a PA sugar chain (3.75 nM or 7.5 nM) was continuously inputted to the column using an automatic sampling apparatus.
(§9) The fluorescent strength of the eluate of the PA sugar (excitation wavelength of 310 nm and fluorescence wavelength of 380 nm) was monitored to measure the interaction strength [a difference of the front end eluate to the standard oligosaccharide (PA rhamnose): V−V0]. […]

[2] = frontal affinity chromatography (FAC), association constant to PA sugar chains having other L-fucose; type: binding; conditions: for association constant Ka: 25 degrees C.
Procedure: as §1, §2, §3, §4, §5, §6, §7, §8, §9

Stropharia rugosoannulata lectin [SRL, novel L-fucose α1→6 specific lectin purified from the mushroom Stropharia rugosoannulata]
binding to sugar chain not having L-fucose ([1]; FAC): not bound
association constant Ka ([1]; Sugar chain No. 001): <1000 M⁻¹
association constant Ka ([1]; Sugar chain No. 002): <1000 M⁻¹
association constant Ka ([1]; Sugar chain No. 003): <1000 M⁻¹
association constant Ka ([1]; Sugar chain No. 004): <1000 M⁻¹
association constant Ka ([1]; Sugar chain No. 005): <1000 M⁻¹
association constant Ka ([1]; Sugar chain No. 006): <1000 M⁻¹
association constant Ka ([1]; Sugar chain No. 007): <1000 M⁻¹
association constant Ka ([1]; Sugar chain No. 008): <1000 M⁻¹
association constant Ka ([1]; Sugar chain No. 009): <1000 M⁻¹
association constant Ka ([1]; Sugar chain No. 010): <1000 M⁻¹
association constant Ka ([1]; Sugar chain No. 011): <1000 M⁻¹
association constant Ka ([1]; Sugar chain No. 012): <1000 M⁻¹
association constant Ka ([1]; Sugar chain No. 013): <1000 M⁻¹
association constant Ka ([1]; Sugar chain No. 014): <1000 M⁻¹
association constant Ka ([1]; Sugar chain No. 101): <1000 M⁻¹
association constant Ka ([1]; Sugar chain No. 103): <1000 M⁻¹
association constant Ka ([1]; Sugar chain No. 104): <1000 M⁻¹
association constant Ka ([1]; Sugar chain No. 105): <1000 M⁻¹
association constant Ka ([1]; Sugar chain No. 107): <1000 M⁻¹
association constant Ka ([1]; Sugar chain No. 108): <1000 M⁻¹
association constant Ka ([1]; Sugar chain No. 301): <1000 M⁻¹
association constant Ka ([1]; Sugar chain No. 304): <1000 M⁻¹
association constant Ka ([1]; Sugar chain No. 305): <1000 M⁻¹
association constant Ka ([1]; Sugar chain No. 307): <1000 M⁻¹
association constant Ka ([1]; Sugar chain No. 308): <1000 M⁻¹
association constant Ka ([1]; Sugar chain No. 313): <1000 M⁻¹
association constant Ka ([1]; Sugar chain No. 314): <1000 M⁻¹
association constant Ka ([1]; Sugar chain No. 323): <1000 M⁻¹
association constant Ka ([1]; Sugar chain No. 501): <1000 M⁻¹
association constant Ka ([1]; Sugar chain No. 502): <1000 M⁻¹
association constant Ka ([1]; Sugar chain No. 503): <1000 M⁻¹
association constant Ka ([1]; Sugar chain No. 504): <1000 M⁻¹
association constant Ka ([1]; Sugar chain No. 701): <1000 M⁻¹
association constant Ka ([1]; Sugar chain No. 702): <1000 M⁻¹
association constant Ka ([1]; Sugar chain No. 703): <1000 M⁻¹
association constant Ka ([1]; Sugar chain No. 704): <1000 M⁻¹
association constant Ka ([1]; Sugar chain No. 705): <1000 M⁻¹
association constant Ka ([1]; Sugar chain No. 706): <1000 M⁻¹
association constant Ka ([1]; Sugar chain No. 707): <1000 M⁻¹
association constant Ka ([1]; Sugar chain No. 708): <1000 M⁻¹
association constant Ka ([1]; Sugar chain No. 709): <1000 M⁻¹
association constant Ka ([1]; Sugar chain No. 710): <1000 M⁻¹
association constant Ka ([1]; Sugar chain No. 711): <1000 M⁻¹
association constant Ka ([1]; Sugar chain No. 712): <1000 M⁻¹
association constant Ka ([1]; Sugar chain No. 713): <1000 M⁻¹
association constant Ka ([1]; Sugar chain No. 715): <1000 M⁻¹
association constant Ka ([1]; Sugar chain No. 716): <1000 M⁻¹
association constant Ka ([1]; Sugar chain No. 717): <1000 M⁻¹
association constant Ka ([1]; Sugar chain No. 724): <1000 M⁻¹
association constant Ka ([1]; Sugar chain No. 725): <1000 M⁻¹
association constant Ka ([1]; Sugar chain No. 728 (as listed in Table 7)): <1000 M⁻¹
association constant Ka ([1]; Sugar chain No. 732): <1000 M⁻¹
association constant Ka ([1]; Sugar chain No. 733): <1000 M⁻¹
association constant Ka ([1]; Sugar chain No. 734): <1000 M⁻¹
association constant Ka ([1]; Sugar chain No. 735): <1000 M⁻¹
association constant Ka ([1]; Sugar chain No. 736): <1000 M⁻¹
association constant Ka ([1]; Sugar chain No. 737): <1000 M⁻¹
association constant Ka ([1]; Sugar chain No. 738): <1000 M⁻¹
association constant Ka ([1]; Sugar chain No. 901): <1000 M⁻¹
association constant Ka ([1]; Sugar chain No. 902): <1000 M⁻¹
association constant Ka ([1]; Sugar chain No. 903): <1000 M⁻¹
association constant Ka ([1]; Sugar chain No. 905): <1000 M⁻¹
association constant Ka ([1]; Sugar chain No. 906): <1000 M⁻¹
association constant Ka ([1]; Sugar chain No. 907): <1000 M⁻¹
binding to non-L-fucose α1→6 sugar chain ([2]; FAC): not bound
association constant Ka ([2]; Sugar chain No. 419): <1000 M⁻¹
association constant Ka ([2]; Sugar chain No. 420): <1000 M⁻¹
association constant Ka ([2]; Sugar chain No. 718): <1000 M⁻¹
association constant Ka ([2]; Sugar chain No. 719): <1000 M⁻¹
association constant Ka ([2]; Sugar chain No. 720): <1000 M⁻¹
association constant Ka ([2]; Sugar chain No. 721): <1000 M⁻¹
association constant Ka ([2]; Sugar chain No. 722): <1000 M⁻¹
association constant Ka ([2]; Sugar chain No. 723): <1000 M⁻¹
association constant Ka ([2]; Sugar chain No. 726): <1000 M⁻¹
association constant Ka ([2]; Sugar chain No. 727): <1000 M⁻¹
association constant Ka ([2]; Sugar chain No. 728 (as listed in Table 5/12)): <1000 M⁻¹
association constant Ka ([2]; Sugar chain No. 729): <1000 M⁻¹
association constant Ka ([2]; Sugar chain No. 730): <1000 M⁻¹
association constant Ka ([2]; Sugar chain No. 731): <1000 M⁻¹
association constant Ka ([2]; Sugar chain No. 739): <1000 M⁻¹
association constant Ka ([2]; Sugar chain No. 909): <1000 M⁻¹
association constant Ka ([2]; Sugar chain No. 910): <1000 M⁻¹
association constant Ka ([2]; Sugar chain No. 931): <1000 M⁻¹
association constant Ka ([2]; Sugar chain No. 932): <1000 M⁻¹
association constant Ka ([2]; Sugar chain No. 933): <1000 M⁻¹
